In US20230081132A1 (priority 2021, published 2023):
Values after ≈ are worked out from the molar mass of the structure shown. Values joined by “and” are separate entries in the source; they are usually repeats but may differ in a detail not shown here. Equal entries are not always repeated.

Assays:
Type in all cases: binding
TTX monoclonal antibody [1] = tested on: TTX monoclonal antibody
TTX monoclonal antibody [2] = tested on: TTX monoclonal antibody; remark: listed apart in the source
TTX monoclonal antibody [3] = tested on: TTX monoclonal antibody; remark: listed apart in the source

| Compound | competitive inhibition rate (1-T/T0) (TTX monoclonal antibody [1]) | fluorescence signal value of detection line (TTX monoclonal antibody [1]) [a.u.] | IC50 (TTX monoclonal antibody [2]) [ng/mL] | FLT (a.u.) (TTX monoclonal antibody [3]) |
| --- | --- | --- | --- | --- |
| NC1=N[C@H](O)[C@H]2[C@H]3O[C@]4(O)O[C@@H]([C@@H](O)[C@@]2(N1)[C@@H]4O)[C@]3(O)CO [TTX, Tetrodotoxin] | 0.3 | 343000 | 1.713 (≈ 5.37 nM) | – |
| MC-LR | – | – | – | 452864 a.u. and 478692 a.u. and 475179 a.u. and 469265 a.u. and 465390 a.u. and 480375 a.u. |
| C/C(=C/C=C/[C@@H](C)C(=O)O)[C@H]1CN[C@H](C(=O)O)[C@H]1CC(=O)O [DA] | – | – | – | 503422 a.u. and 504729 a.u. and 501687 a.u. and 506770 a.u. and 503922 a.u. and 508625 a.u. |
